Assay [1] concerns HCT-116. Kind of assay: Antitumor activity against human HCT-116 cells xenografted in BALB/c nude mouse assessed as tumor growth inhibition at 20 mg/kg, ip administered for 14 days relative to control. Type of assay: functional. Conditions: time 14 day. For orientation: In xenograft studies the graft and the host belong to different species.
Assay [2] concerns A549. Kind of assay: Antiproliferative activity against human A549 cells assessed as inhibition of cell viability incubated for 72 hrs by CCK8 assay. As to conditions: A549, 72 h. Type of assay: functional, cell-based. On the technique in general: Formazan colour is commonly taken as a measure of viable cells.
For assay [3], the system named is A549. Kind of assay: cells. Conditions: Homo sapiens, A549, 72 h.
Description: Antiproliferative activity against human A549 cells assessed as inhibition of cell viability incubated for 72 hrs in presence of IDM by CCK8 assay
The subject of assay [4] is MV4-11. The assay can be described thus: Antiproliferative activity against human MV4-11 cells assessed as inhibition of cell viability incubated for 72 hrs in presence of IDM by CCK8 assay. The class given is functional, cell-based. As to conditions: MV4-11, 72 h.
Assay [5] relates to NCM460. The assay can be described thus: Antiproliferative activity against human NCM460 cells assessed as inhibition of cell viability incubated for 72 hrs by CCK8 assay. Conditions: NCM460, 72 h. The class given is functional, cell-based.
Assay [6] has as its system NCM460. Kind of assay: cells. As to conditions: Homo sapiens, NCM460, 72 h.
Description: Antiproliferative activity against human NCM460 cells assessed as inhibition of cell viability incubated for 72 hrs in presence of IDM by CCK8 assay
Assay [7] has as its system HCT-116. The assay can be described thus: Induction of DNA damage in human HCT-116 cells assessed as increase in gammaH2AX protein level at 1 uM incubated for 48 hrs in presence of IDM by Western blotting analysis. Type of assay: cell-based.
In assay [8] the test system is MCF7. Kind of assay: Antiproliferative activity against human MCF7 cells assessed as inhibition of cell viability incubated for 72 hrs by CCK8 assay. The class given is functional, cell-based. As to conditions: MCF7, 72 h.
The subject of assay [9] is MV4-11. The assay can be described thus: Antiproliferative activity against human MV4-11 cells assessed as inhibition of cell viability incubated for 72 hrs by CCK8 assay. Conditions: MV4-11, 72 h. Type of assay: functional, cell-based.
Assay [10] deals with T1, Poly [ADP-ribose] polymerase 1 (Homo sapiens, UniProt P09874). As to conditions: dose 10.0 nM, time 10.0 min.
Assay [11] deals with HCT-116. The assay can be described thus: cells. As to conditions: Homo sapiens, HCT-116, 72 h.
Description: Antiproliferative activity against human HCT-116 cells assessed as inhibition of cell viability incubated for 72 hrs in presence of IDM by CCK8 assay
Assay [12] deals with HCT-116. The assay can be described thus: Antiproliferative activity against human HCT-116 cells assessed as inhibition of cell viability incubated for 72 hrs by CCK8 assay. The class given is functional, cell-based. As to conditions: HCT-116, 72 h.
Assay [13] concerns MCF7. The assay can be described thus: cells. As to conditions: Homo sapiens, MCF7, 72 h.
Description: Antiproliferative activity against human MCF7 cells assessed as inhibition of cell viability incubated for 72 hrs in presence of IDM by CCK8 assay
The test system of assay [14] is MV4-11. Kind of assay: Antiproliferative activity against human MV4-11 cells assessed as inhibition of cell viability incubated for 72 hrs in presence of olaparib by CCK8 assay. Type of assay: functional, cell-based. Conditions: MV4-11, 72 h.
The subject of assay [15] is NCM460. Kind of assay: Antiproliferative activity against human NCM460 cells assessed as combination index incubated for 72 hrs in presence of olaparib by CCK8 assay. The class given is functional.
The test system of assay [16] is HCT-116. Kind of assay: Induction of DNA damage in human HCT-116 cells assessed as increase in gammaH2AX protein level at 1 uM incubated for 48 hrs in presence of Olaparib by Western blotting analysis. Type of assay: functional, cell-based.
Assay [17] relates to NCM460. Kind of assay: Antiproliferative activity against human NCM460 cells assessed as inhibition of cell viability incubated for 72 hrs in presence of Niraparib by CCK8 assay. Conditions: NCM460, 72 h. The class given is functional, cell-based.
The subject of assay [18] is MCF7. Kind of assay: Antiproliferative activity against human MCF7 cells assessed as inhibition of cell viability incubated for 72 hrs in presence of olaparib by CCK8 assay. The class given is functional, cell-based. Conditions: MCF7, 72 h.
The test system of assay [19] is MV4-11. The assay can be described thus: Antiproliferative activity against human MV4-11 cells assessed as combination index incubated for 72 hrs in presence of olaparib by CCK8 assay. The class given is functional.
In assay [20] the test system is MV4-11. The assay can be described thus: Antiproliferative activity against human MV4-11 cells assessed as combination index incubated for 72 hrs in presence of Niraparib by CCK8 assay. The class given is functional.
Assay [21] relates to HCT-116. The assay can be described thus: Antitumor activity against human HCT-116 cells xenografted in BALB/c nude mouse assessed as tumor growth inhibition at 20 mg/kg, ip administered for 14 days in presence of Olaparib relative to control. Type of assay: functional. Conditions: HCT-116, 336 h, time 14 day, read-out: TGI.
The subject of assay [22] is MV4-11. The assay can be described thus: Antiproliferative activity against human MV4-11 cells assessed as inhibition of cell viability incubated for 72 hrs in presence of Niraparib by CCK8 assay. Type of assay: functional, cell-based. Conditions: MV4-11, 72 h.
The subject of assay [23] is HCT-116. The assay can be described thus: Antiproliferative activity against human HCT-116 cells assessed as inhibition of cell viability incubated for 72 hrs in presence of olaparib by CCK8 assay. The class given is functional, cell-based. Conditions: HCT-116, 72 h.
The test system of assay [24] is HCT-116. The assay can be described thus: Antiproliferative activity against human HCT-116 cells assessed as combination index incubated for 72 hrs in presence of Niraparib by CCK8 assay. Type of assay: functional.
Assay [25] relates to A549. The assay can be described thus: Antiproliferative activity against human A549 cells assessed as inhibition of cell viability incubated for 72 hrs in presence of olaparib by CCK8 assay. Type of assay: functional, cell-based. As to conditions: A549, 72 h.
In assay [26] the test system is MCF7. Kind of assay: Antiproliferative activity against human MCF7 cells assessed as inhibition of cell viability incubated for 72 hrs in presence of Niraparib by CCK8 assay. Type of assay: functional, cell-based. As to conditions: MCF7, 72 h.
Assay [27] has as its system MCF7. Kind of assay: Antiproliferative activity against human MCF7 cells assessed as combination index incubated for 72 hrs in presence of Niraparib by CCK8 assay. Type of assay: functional.
The test system of assay [28] is A549. The assay can be described thus: Antiproliferative activity against human A549 cells assessed as combination index incubated for 72 hrs in presence of Niraparib by CCK8 assay. Type of assay: functional.
The test system of assay [29] is HCT-116. Kind of assay: Antiproliferative activity against human HCT-116 cells assessed as combination index incubated for 72 hrs in presence of olaparib by CCK8 assay. The class given is functional.
For assay [30], the system named is MCF7. Kind of assay: Antiproliferative activity against human MCF7 cells assessed as combination index incubated for 72 hrs in presence of olaparib by CCK8 assay. Type of assay: functional.
Assay [31] deals with A549. Kind of assay: Antiproliferative activity against human A549 cells assessed as inhibition of cell viability incubated for 72 hrs in presence of Niraparib by CCK8 assay. Type of assay: functional, cell-based. Conditions: A549, 72 h.
For assay [32], the system named is NCM460. Kind of assay: Antiproliferative activity against human NCM460 cells assessed as combination index incubated for 72 hrs in presence of Niraparib by CCK8 assay. The class given is functional.
For assay [33], the system named is A549. Kind of assay: Antiproliferative activity against human A549 cells assessed as combination index incubated for 72 hrs in presence of olaparib by CCK8 assay. The class given is functional.
The test system of assay [34] is HCT-116. Kind of assay: Antiproliferative activity against human HCT-116 cells assessed as inhibition of cell viability incubated for 72 hrs in presence of Niraparib by CCK8 assay. Type of assay: functional, cell-based. As to conditions: HCT-116, 72 h.
Assay [35] has as its system NCM460. Kind of assay: Antiproliferative activity against human NCM460 cells assessed as inhibition of cell viability incubated for 72 hrs in presence of olaparib by CCK8 assay. Type of assay: functional, cell-based. Conditions: NCM460, 72 h.
Assay [36] has as its target T1, Poly [ADP-ribose] polymerase 1. The assay can be described thus: Inhibition of PARP1 (unknown origin) incubated for 10 mins by chemiluminescence assay.

The TGI is the reduction of tumour growth relative to the control group. By IC50 is commonly meant the concentration that gives 50% inhibition. The inhibition is the drop in the measured response relative to a control, in per cent. A lower inhibition goes with a weak effect.

Calls of active or inactive are those of the source. No cut-off for these calls is given here.

T1 sequence (P09874 whole entry): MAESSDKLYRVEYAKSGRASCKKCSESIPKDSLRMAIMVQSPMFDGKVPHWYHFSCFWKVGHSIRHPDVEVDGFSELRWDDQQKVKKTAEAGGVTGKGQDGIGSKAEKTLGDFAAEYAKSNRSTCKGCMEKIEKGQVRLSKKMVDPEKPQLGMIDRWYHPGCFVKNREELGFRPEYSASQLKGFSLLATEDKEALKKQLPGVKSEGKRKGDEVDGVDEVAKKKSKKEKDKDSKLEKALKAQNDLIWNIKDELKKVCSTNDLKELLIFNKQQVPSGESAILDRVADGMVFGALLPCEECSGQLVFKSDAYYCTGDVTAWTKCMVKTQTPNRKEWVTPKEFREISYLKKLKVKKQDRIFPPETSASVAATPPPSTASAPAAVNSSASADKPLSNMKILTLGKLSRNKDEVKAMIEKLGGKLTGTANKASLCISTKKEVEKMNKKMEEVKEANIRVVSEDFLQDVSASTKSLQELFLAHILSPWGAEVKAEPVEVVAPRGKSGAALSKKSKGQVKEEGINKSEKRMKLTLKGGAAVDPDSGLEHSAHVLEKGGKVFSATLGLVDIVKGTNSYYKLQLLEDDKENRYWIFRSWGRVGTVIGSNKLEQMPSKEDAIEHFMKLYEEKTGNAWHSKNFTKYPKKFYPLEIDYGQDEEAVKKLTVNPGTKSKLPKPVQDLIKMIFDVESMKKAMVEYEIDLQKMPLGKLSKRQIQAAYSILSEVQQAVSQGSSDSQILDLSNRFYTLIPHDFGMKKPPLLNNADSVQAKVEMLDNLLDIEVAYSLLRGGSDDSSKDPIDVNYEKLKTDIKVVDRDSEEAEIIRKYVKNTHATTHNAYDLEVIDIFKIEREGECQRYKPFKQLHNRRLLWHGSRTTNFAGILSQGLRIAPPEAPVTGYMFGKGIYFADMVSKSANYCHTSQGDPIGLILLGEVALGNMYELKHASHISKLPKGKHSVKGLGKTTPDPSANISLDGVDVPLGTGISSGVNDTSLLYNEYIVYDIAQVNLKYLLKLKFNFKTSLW

As for `O=C(c1cc(Cc2n[nH]c(=O)c3ccccc23)ccc1F)N1CCN(C(=O)C2CC2)CC1` [OLAPARIB], in assay [1], the TGI is 32.5%. Also, the IC50 in assay [2] was 29.5 µM; in [3], 6.06 µM; in assay [4], 2.36 µM; in [5], 67.2 µM; in [6], 20.2 µM; in assay [8] it was 93.9 µM. Moreover, the half-inhibitory concentration (IC50) turned out to be 13.4 µM in assay [9], 1.37 µM in assay [11], 11.1 µM in [12] and 2.33 µM in assay [13]. Moreover, the result in assay [7] was Active. Moreover, the inhibition in assay [10] was 50.6%.

`O=C1Nc2ccccc2/C1=C1/Nc2ccccc2/C1=N\O`: the IC50 in assay [14] amounted to 2.36 µM; in [17], 21.1 µM; in [18] it was 2.33 µM; in assay [2], 8.21 µM; in assay [22], 1.69 µM; in [23], 1.37 µM. In addition, the IC50 in assay [25] amounted to 6.06 µM; in assay [26], 1.41 µM; in assay [5], 13.1 µM; in assay [8], 4.1 µM; in [9] it was 6.01 µM; in [31] it was 4.17 µM. The IC50 turned out to be 0.83 µM in assay [34], 20.2 µM in assay [35] and 3.88 µM in assay [12]. Further, the CI in assay [15] was determined as 0.92; in [19], 0.57; in assay [20] it was 0.72; in assay [24], 0.67; in assay [27], 0.47; in [28], 0.84. For the same compound, the CI in assay [29] is 0.47; in [30], 0.59; in [32] it was 1; in assay [33], 0.94. The outcome in assay [16] was Active. Moreover, the inhibition in vivo at 20 mg/kg in assay [1] (Mus musculus, HCT-116, 336 h, read-out: TGI) turned out to be 47.4%; in assay [21] it was 64.6%.

As for `NC(=O)c1cccc2cn(-c3ccc([C@@H]4CCCNC4)cc3)nc12` [NIRAPARIB], the IC50 in assay [2] worked out at 12.6 µM; in assay [3], 4.17 µM; in [4], 1.69 µM; in assay [5], 53.7 µM; in [6] it was 21.1 µM; in assay [8] it was 11.8 µM. Moreover, the half-inhibitory concentration (IC50) in [9] is 3.82 µM; in assay [11], 0.83 µM; in assay [12], 1.81 µM; in assay [13], 1.41 µM.

As to `O=C1Nc2ccc(Br)cc2/C1=C1/Nc2ccccc2/C1=N\OCCCC(=O)N1CCN(C(=O)c2cc(Cc3n[nH]c(=O)c4ccccc34)ccc2F)CC1`, the IC50 in assay [2] is 27.6 µM; in [5] it was more than 60 µM; in [8] it was 29.2 µM; in assay [9] it was 11.4 µM; in assay [36] it was 0.00466 µM; in [12], 8.43 µM. Moreover, in assay [10], the inhibition is 53.8%.
